Drawing on PubChem BioAssay (NCI), this text covers TGI for 16 compounds.

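In this assay, cells in 96-well plates receive the compound at five concentrations for 48 hours. Endpoints are linearly interpolated between the surrounding concentrations. TGI denotes the concentration required for complete inhibition of growth.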 A value given as a limit tells only on which side of the number the result lay.

What all share (experiment): NCI tumour cell line growth inhibition, 48 h
Assay [1] deals with DU-145 prostate.
Assay [2] deals with SK-MEL-28 melanoma.
The test system of assay [3] is HS 578T breast.
Assay [4] relates to MCF7 breast.
The subject of assay [5] is LOX IMVI melanoma.
Assay [6] has as its system NCI-H522 lung.
The test system of assay [7] is UACC-62 melanoma.
Assay [8] concerns HOP-62 NSCLC.
The test system of assay [9] is UO-31 renal.
Assay [10] concerns EKVX NSCLC.
The subject of assay [11] is T-47D breast.
In assay [12] the test system is RPMI-8226 leukemia.
Assay [13] deals with ACHN renal.
The test system of assay [14] is UACC-257 melanoma.
Assay [15] relates to IGROV1 ovarian.
For assay [16], the system named is MDA-MB-231 breast.
The test system of assay [17] is PC-3 prostate.
Assay [18] deals with BT-549 breast.

Consider `O=c1c2nc3ccccc3c(=O)n2ncn1-c1ccccc1Cl`, for which the TGI in assay [1], in [2], in assay [3], in [4], in [5] and in assay [6] was over 100 µM throughout. For the same compound, the TGI in [7], in [8], in [9], in assay [10], in assay [11] and in assay [12] was over 100 µM throughout. In addition, the TGI in [13], in assay [14], in assay [15], in assay [16], in assay [17] and in assay [18] was over 100 µM in each case.

In the case of `CCCCc1ccc(Nc2nc(SC)c3[nH]cnc3n2)cc1`, the TGI in assay [1], in assay [2], in [3], in assay [4], in assay [5] and in assay [6] was over 100 µM each time. Moreover, the TGI is over 100 µM in [7]; 57.7 µM in assay [8]; over 100 µM in [9]; over 100 µM in [10]; over 100 µM in assay [11]; over 100 µM in assay [12]. The TGI in assay [13], in assay [14], in assay [15], in [16], in [17] and in assay [18] was over 100 µM throughout.

On to `Brc1cc(CCOC2CCCCO2)c(-c2sccc2CCOC2CCCCO2)s1` (stereo not given), for which the TGI in [1] is over 100 µM; in [2], over 100 µM; in [3], over 95.7 µM; in [4] it was over 80 µM; in [5], over 71.2 µM; in assay [6] it was over 69.6 µM. Besides, the TGI in [7] is over 100 µM; in [8], over 100 µM; in assay [9], over 42.1 µM; in [10], over 100 µM; in assay [11] it was over 100 µM; in [12], over 100 µM. Also, the TGI in assay [13], in assay [14], in assay [15], in assay [16], in assay [17] and in assay [18] was over 100 µM throughout.

On to `Cc1cccc(CP(Cc2cccc(C)c2)CC2(Cp3c4ccccc4c4ccccc43)COC2)c1`, for which the TGI in assay [1] is over 100 µM; in [2], over 100 µM; in assay [3], over 100 µM; in [4], over 100 µM; in [5] it was over 100 µM; in assay [6], over 85.8 µM. Also, the TGI in [7] was over 100 µM; in assay [8], over 100 µM; in [9], over 100 µM; in assay [10] it was over 100 µM; in assay [11] it was over 100 µM; in [12], over 62.5 µM. Besides, the TGI in [13] is over 100 µM; in [14], over 100 µM; in [15], over 100 µM; in [16], over 37 µM; in assay [17], over 100 µM; in assay [18], over 100 µM.

As to `Cc1cc2c(cc1Cl)S(=O)(=O)OC(c1ccc([N+](=O)[O-])cc1)=N2`, the TGI in assay [1], in [2], in assay [3], in assay [4], in assay [5] and in assay [6] was over 100 µM in each case. Also, the TGI in assay [7], in assay [8], in assay [9], in assay [10], in assay [11] and in assay [12] was over 100 µM in each case. Also, the TGI in assay [13], in assay [14], in assay [15], in assay [16], in assay [17] and in [18] was over 100 µM throughout.

In the case of `Clc1cc(Cl)cc(C=NC23CC4CC(CC(C4)C2)C3)c1`, the TGI in assay [1], in assay [2], in [3], in assay [4], in [5] and in assay [6] was over 10 µM each time. Besides, the TGI in assay [7], in assay [8], in assay [10], in [11], in [12] and in [13] was over 10 µM throughout. In addition, the TGI in assay [14], in [15], in assay [16], in assay [17] and in assay [18] was over 10 µM each time.

For `Nc1ccc2c(SCc3ccc([N+](=O)[O-])cc3)c3ccccc3nc2c1`, the TGI was found to be 17.9 µM in assay [1]; 33.5 µM in assay [2]; 48 µM in assay [3]; 27.6 µM in assay [4]; 19.1 µM in assay [5]; 15.1 µM in [6]. In addition, the TGI in [7] was found to be 31.3 µM; in assay [8] it was 46.5 µM; in assay [9], 27.2 µM; in [10] it was 59 µM; in assay [11], 22.6 µM; in assay [12], 14.2 µM. Further, the TGI was 14.5 µM in assay [13]; 33.6 µM in [14]; 39.5 µM in assay [15]; over 55.8 µM in assay [16]; 29.7 µM in [17]; 32.1 µM in assay [18].

As for `O=C1NCc2ccccc2S(=O)(=O)n2cccc21`, the TGI in assay [1], in [2], in assay [3], in assay [4], in assay [5] and in assay [6] was over 100 µM throughout. For the same compound, the TGI in assay [7], in assay [8], in assay [9], in assay [10], in assay [11] and in [12] was over 100 µM in each case. Besides, the TGI in assay [13], in [14], in assay [15], in [16], in [17] and in assay [18] was over 100 µM each time.

For `O=C1CSC(c2ccc([N+](=O)[O-])cc2)N1c1ccc(-n2c(-c3ccccc3)nc3ccccc3c2=O)cc1` (stereo not given), the TGI in assay [1], in [2], in assay [3], in [4], in assay [5] and in assay [6] was over 100 µM in each case. Also, the TGI in assay [7] is over 100 µM; in assay [8], over 100 µM; in assay [9] it was 29.3 µM; in [10], over 100 µM; in assay [11] it was over 100 µM; in assay [12] it was over 100 µM. The TGI in assay [13], in assay [14], in assay [15], in assay [16], in [17] and in assay [18] was over 100 µM in each case.

Consider `Cc1nn(C(=O)Cc2ccccc2)c2c1C(c1ccc(O)cc1O)SC(N)=N2` (stereo not given), for which the TGI in assay [1], in assay [2], in [3], in assay [4], in [5] and in assay [6] was over 100 µM each time. Also, the TGI in assay [7], in assay [8], in [9], in [10], in assay [11] and in assay [12] was over 100 µM each time. Besides, the TGI in assay [13], in assay [14], in [15], in [16], in [17] and in [18] was over 100 µM throughout.

In the case of `CC(=O)O[C@H]1[C@@H]2OC(=O)[C@@](O)(CC3CCCO3)[C@@H]2CC(=O)[C@](C)(O)CC/C=C(\C)CCC[C@@H]1C` (stereo not given in full), the TGI in assay [1] was over 100 µM; in assay [2], 44.5 µM; in assay [3], over 100 µM; in assay [4] it was over 100 µM; in assay [5] it was 46.1 µM; in [6], 72.4 µM. Moreover, the TGI in assay [7], in assay [9], in assay [10], in assay [11], in assay [12] and in assay [13] was over 100 µM throughout. Also, the TGI in assay [14] is over 100 µM; in assay [15], over 100 µM; in assay [16], 63 µM; in assay [17], over 100 µM; in assay [18], 70.4 µM.

Regarding `Cn1c2ccc3cc2c(=S)c2cc(ccc21)OCCOCCOCCOCCOCCO3`, the TGI in [1], in assay [2], in assay [3], in assay [4], in assay [5] and in assay [6] was over 10 µM each time. Moreover, the TGI in assay [7], in assay [8], in [10], in assay [11], in assay [12] and in [13] was over 10 µM in each case. In addition, the TGI in [14], in assay [15], in assay [16], in [17] and in [18] was over 10 µM each time.

For `Cc1nn(C(=O)c2ccc(Cl)cc2)c2c1C(c1ccccc1[N+](=O)[O-])SC(N)=N2` (stereo not given), the TGI in assay [1], in assay [3], in assay [4], in assay [5], in assay [6] and in assay [7] was over 10 µM throughout. Besides, the TGI in [8], in assay [10], in assay [11], in assay [12], in assay [13] and in assay [14] was over 10 µM in each case. For the same compound, the TGI in assay [15], in [16], in assay [17] and in assay [18] was over 10 µM in each case.

Turning to `N#CC(=C1CCN(CCCC(=O)c2ccc(F)cc2)CC1)c1ccccc1`, the TGI in assay [1] is over 100 µM; in [2], over 100 µM; in assay [3], over 100 µM; in assay [4] it was over 100 µM; in assay [5], over 100 µM; in [6] it was 95.2 µM. Besides, the TGI in [7], in assay [9], in assay [10], in assay [11], in assay [12] and in [13] was over 100 µM in each case. Moreover, the TGI in [14], in [15], in [16], in assay [17] and in [18] was over 100 µM in each case.

`C[C@@H](c1ccccc1)N1CN(C(=O)OCc2ccccc2)C(C)(C)CC1=O`: the TGI in [1], in assay [2], in assay [3], in [4], in [5] and in [6] was over 100 µM each time. Also, the TGI in assay [7], in assay [8], in assay [10], in assay [11], in [12] and in [13] was over 100 µM throughout. Besides, the TGI in [14], in [15], in [16], in [17] and in assay [18] was over 100 µM each time.

On to `COc1ccc(CC(=O)N2CCC3(C)CC(=O)CC=C23)cc1OC` (stereo not given), for which the TGI in assay [1], in assay [2], in [3], in [4], in [5] and in [6] was over 100 µM each time. Also, the TGI in [7], in [8], in assay [9], in assay [10], in assay [11] and in [12] was over 100 µM in each case. Moreover, the TGI in assay [13], in assay [15], in assay [16], in assay [17] and in assay [18] was over 100 µM each time.
